Drawing on patent publication US5789404A, “3-substituted 1-arylindole compounds” (H. Lundbeck A/S, priority 1993, dated 1998), this text covers IC50 for 31 compounds.

Counter-ions that a name gives are not always drawn. Like-named read-outs stand apart in the source and are kept apart here.

One assay concerns the target T1, 5-HT2 receptors (Rattus norvegicus, UniProt P14842).
T1 construct: 5-HT2 Receptors in Rat Cortex in vitro; from tissue; host or cells: rat cortex membranes
The assay is described as follows: Inhibition of ^3 H-Ketanserin Binding to 5-HT2 Receptors in Rat Cortex in vitro. On the procedure:
Inhibition of ^3 H-Ketanserin Binding to 5-HT2 Receptors in Rat Cortex in vitro
By this method the inhibition by drugs of the binding of ^3 H-Ketanserin (0,5 nM) to 5-HT2 receptors in membranes from rat is determined in vitro. The method is described in Hyttel, Pharmacol. & Toxicol.

In a further assay the target is dopamine D2 receptors (Rattus norvegicus, UniProt P61169). The assay is described as follows: biochemical. The format is binding. On the procedure:
Inhibition of ^3 H-Spiroperidol Binding to Dopamine D2 Receptors in Rat Corpus Striatum in vitro
By this method the inhibition by drugs of the binding of ^3 H-spiroperidol (0.5 nM) to dopamine D2 receptors in membranes from rat corpus striatum is determined in vitro.

[1] abbreviates: ^3 H-Ketanserin 0,5 nM, rat cortex membranes, read-out: 5-HT2 binding ^3 H ketanserin, IC50.
Setting [2] is: ^3 H-spiroperidol 0.5 nM, rat corpus striatum membranes, read-out: Dopamin D2 binding ^3 H spiroperidol, IC50.
[3] abbreviates: read-out: Dopamin D2 binding ^3 H spiroperidol, IC50.

T1 sequence (P14842 whole entry): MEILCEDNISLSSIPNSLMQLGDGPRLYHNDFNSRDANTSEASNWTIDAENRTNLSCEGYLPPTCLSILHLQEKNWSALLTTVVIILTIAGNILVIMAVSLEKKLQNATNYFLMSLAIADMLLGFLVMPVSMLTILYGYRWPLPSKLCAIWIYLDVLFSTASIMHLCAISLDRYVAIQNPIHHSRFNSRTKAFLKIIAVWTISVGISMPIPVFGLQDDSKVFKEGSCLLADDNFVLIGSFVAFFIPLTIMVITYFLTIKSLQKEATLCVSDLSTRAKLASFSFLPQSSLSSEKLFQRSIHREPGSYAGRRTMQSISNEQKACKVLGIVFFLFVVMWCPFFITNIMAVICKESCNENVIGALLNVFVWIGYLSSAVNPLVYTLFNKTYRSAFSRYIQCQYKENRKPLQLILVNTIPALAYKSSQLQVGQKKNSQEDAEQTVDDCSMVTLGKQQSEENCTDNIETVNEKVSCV
Chain of dopamine D2 receptors (P61169 whole entry): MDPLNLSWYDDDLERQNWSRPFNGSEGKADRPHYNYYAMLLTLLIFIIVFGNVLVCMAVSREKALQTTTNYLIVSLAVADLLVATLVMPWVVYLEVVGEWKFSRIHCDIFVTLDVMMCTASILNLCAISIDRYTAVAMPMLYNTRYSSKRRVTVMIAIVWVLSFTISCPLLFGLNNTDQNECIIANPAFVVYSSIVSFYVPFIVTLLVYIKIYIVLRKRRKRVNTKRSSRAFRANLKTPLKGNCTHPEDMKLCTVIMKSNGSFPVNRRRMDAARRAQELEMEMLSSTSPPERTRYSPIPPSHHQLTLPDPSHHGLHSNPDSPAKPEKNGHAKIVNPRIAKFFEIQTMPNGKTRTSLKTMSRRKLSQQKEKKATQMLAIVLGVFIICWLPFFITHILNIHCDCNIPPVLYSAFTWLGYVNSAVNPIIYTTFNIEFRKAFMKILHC

As to “5-Chloro-1-(4-fluorophenyl)-3-[3-(4-piperidinyl)propyl]-1H-indole hydrochloride [Compound 3d]”, the values for the 50% inhibitory concentration (IC50) on 5-HT2 receptors (setting [1]) and on dopamine D2 receptors (setting [2]) were 0.11 µM and 0.021 µM, respectively.
On to `CN1CCCC1COc1cn(-c2ccc(F)cc2)c2ccc(Cl)cc12` (stereo in doubt) [Compound 7b, (S)-1-Methyl-2-pyrrolidinylmethoxy-5-chloro-1-(4-fluorophenyl)-1H-indole oxalate], for which the concentration for half-maximal inhibition (IC50) is 0.0082 µM on 5-HT2 receptors (read-out: 5-HT2 binding ^3 H ketanserin, IC50, ^3 H-Ketanserin 0,5 nM, rat cortex membranes) and 0.018 µM at dopamine D2 receptors (setting [2]).
Take `CN(C)CCCc1cn(-c2ccc(F)cc2)c2ccc(Cl)cc12` [Compound 3a, N,N-Dimethyl-3-[5-chloro-1-(4-fluorophenyl)-3-1H-indolyl]propylamine fumarate]: the IC50 at 5-HT2 receptors (setting [1]) came out at 0.019 µM; on dopamine D2 receptors (setting [2]) it was 0.042 µM.
For the compound `CN(CCCc1cn(-c2ccc(F)cc2)c2ccc(Cl)cc12)CCN1CCNC1=O` [Compound 3b, 1-[2-[[3-[5-chloro-1-(4-fluorophenyl)-3-1H-indolyl]propyl]methylamino]ethyl]-2-imidazolidinone fumarate], the results for the concentration for half-maximal inhibition (IC50) on 5-HT2 receptors (setting [1]) and at dopamine D2 receptors (setting [2]) were 0.0078 µM and 0.19 µM, respectively.
Consider `Fc1ccc(-n2cc(CCCN3CCOCC3)c3cc(Cl)ccc32)cc1` [Compound 3c, 5-Chloro-1-(4-fluorophenyl)-3-[3-(4-morpholinyl)propyl]-1H-indole maleate], for which the concentration for half-maximal inhibition (IC50) on 5-HT2 receptors (setting [1]) amounted to 0.31 µM; at dopamine D2 receptors (setting [2]), 0.026 µM.
`CN(C)CCOc1cn(-c2ccc(F)cc2)c2ccc(Cl)cc12` [Compound 4a, N,N-Dimethyl-2-[5-chloro-1-(4-fluorophenyl)-3-1H-indolyloxy]ethylamine sesqui fumarate]: the IC50 at 5-HT2 receptors (setting [1]) came out at 0.0042 µM; at dopamine D2 receptors (setting [2]) it was 0.0029 µM.
For `CN(CCOc1cn(-c2ccc(F)cc2)c2ccc(Cl)cc12)CCN1CCNC1=O` [Compound 4b, 1-[2-[[2-[5-chloro-1-(4-fluorophenyl)-3-1H-indolyloxy]ethyl]methylamino]ethyl]-2-imidazolidinone Maleate], the figures for the IC50 on 5-HT2 receptors (setting [1]) and on dopamine D2 receptors (setting [2]) were 0.00088 µM and 0.0058 µM, respectively.
As for `C#CCN(CCOc1cn(-c2ccc(F)cc2)c2ccc(Cl)cc12)CCN1CCNC1=O` [Compound 4d, 1-[2-[[2-[5-Chloro-1-(4-fluorophenyl)-3-1H-indolyloxy]ethyl](3-propynyl)amino]ethyl]-2-imidazolidinone oxalate], the IC50 on 5-HT2 receptors (setting [1]) was found to be 0.22 µM; at dopamine D2 receptors (setting [2]) it was 0.19 µM.
In the case of `Fc1ccc(-n2cc(OCCN3CCCCC3)c3cc(Cl)ccc32)cc1` [Compound 4e, 5-Chloro-1-(4-fluorophenyl)-3-[2-(1-piperidinyl)ethoxy]-1H-indole], the IC50 at 5-HT2 receptors (setting [1]) worked out at 0.0059 µM; at dopamine D2 receptors (setting [2]) it was 0.0023 µM.
For `Fc1ccc(-n2cc(OCCN3CCOCC3)c3cc(Cl)ccc32)cc1` [Compound 4f, 5-Chloro-1-(4-fluorophenyl)-3-[2-(4-morpholinyl)ethoxy]-1H-indole maleate] the same measures were 0.048 µM and 0.027 µM.
Consider `CN(CCOc1cn(-c2ccc(F)cc2)c2cc(Cl)ccc12)CCN1CCNC1=O` [Compound 4h, 1-[2-[[2-[6-chloro-1-(4-fluorophenyl)-3-1H-indolyloxy]ethyl]methylamino]ethyl]-2-imidazolidinone], for which the IC50 on 5-HT2 receptors (setting [1]) worked out at 0.002 µM; on dopamine D2 receptors (setting [2]), 0.2 µM.
`CC(C)N1CCN(CCN(C)CCOc2cn(-c3ccc(F)cc3)c3cc(Cl)ccc23)C1=O` [Compound 4i, 1-[2-[[2-[6-Chloro-1-(4-fluorophenyl)-3-1H-indolyloxy]ethyl]methylamino]ethyl]-3-(2-propyl)-2-imidazolidinone oxalate]: the half-maximal inhibitory concentration (IC50) at 5-HT2 receptors (setting [1]) worked out at 0.0063 µM; on dopamine D2 receptors (setting [3]), 0.12 µM.
In the case of `CN(C)CCOc1cn(-c2ccc(F)cc2)c2cc(Cl)ccc12` [Compound 4j, N,N-Dimethyl-2-[6-chloro-1-(4-fluorophenyl)-3-1H-indolyloxy]ethylamine], the 50% inhibitory concentration (IC50) on 5-HT2 receptors (setting [1]) is 0.017 µM; on dopamine D2 receptors (setting [2]), 0.063 µM.
For `O=C1NCCN1CCC1CCN(CCOc2cn(-c3ccc(F)cc3)c3ccc(Cl)cc23)CC1` [Compound 4k, 1-[2-[1-[2-[5-Chloro-1-(4-fluorophenyl)-3-1H-indolyloxy]ethyl]-4-piperidinyl]ethyl]-2-imidazolidinone], the IC50 on 5-HT2 receptors (setting [1]) was found to be 0.021 µM; at dopamine D2 receptors (setting [2]) it was 0.0026 µM.
Regarding `CNC(=O)C1CCN(CCOc2cn(-c3ccc(F)cc3)c3ccc(Cl)cc23)CC1` [Compound 4n, N-methyl-1-[2-[5-chloro-1-(4-fluorophenyl)-3-1H-indolyloxy]ethyl]4-piperidinecarboxamide], the IC50 at 5-HT2 receptors (setting [1]) turned out to be 0.028 µM; at dopamine D2 receptors (setting [2]), 0.0047 µM.
On to `Fc1ccc(-n2cc(OCCN3CCCC3)c3ccc(Cl)cc32)cc1` [Compound 4o, 6-Chloro-1-(4-fluorophenyl)-2-(1-pyrrolidinyl)ethoxy-1H-indole], for which the IC50 at 5-HT2 receptors is 0.03 µM; at dopamine D2 receptors (setting [2]) it was 0.023 µM.
For `Fc1ccc(-n2cc(OCCN3CCCCC3)c3ccc(Cl)cc32)cc1` [Compound 4p, 6-Chloro-1-(4-fluorophenyl)-2-(1-piperidinyl)ethoxy-1H-indole] the same measures were 0.035 µM and 0.017 µM.
For `CN(C)CCSc1cn(-c2ccc(F)cc2)c2ccc(Cl)cc12` [Compound 4q, N,N-Dimethyl-2-[5-chloro-1-(4-fluorophenyl)-3-1H-indolylthio]ethylamine hydrochloride], the figures for the half-maximal inhibitory concentration (IC50) on 5-HT2 receptors (setting [1]) and at dopamine D2 receptors (setting [3]) were 0.043 µM and 0.14 µM, respectively.
Turning to `CN(CCSc1cn(-c2ccc(F)cc2)c2ccc(Cl)cc12)CCN1CCNC1=O` [Compound 4r, 1-[2-[[2-[5-Chloro-1-(4-fluorophenyl)-3-1H-indolylthio]ethyl]methylamino]ethyl]-2-imidazolidinone], the IC50 on 5-HT2 receptors (setting [1]) is 0.086 µM; against dopamine D2 receptors, 0.77 µM.
Turning to `CN(CCN1CCNC1=O)Cc1cn(-c2ccc(F)cc2)c2ccc(Cl)cc12` [Compound 4s, 1-[2-[[5-chloro-1-(4-fluorophenyl)-3-1H-indolylmethyl]methylamino]ethyl]-2-imidazolidinone], the half-inhibitory concentration (IC50) at 5-HT2 receptors (setting [1]) is 0.02 µM; on dopamine D2 receptors (setting [2]), 0.022 µM.
`CN(CCCN1CCNC1=O)CCc1cn(-c2ccc(F)cc2)c2ccc(Cl)cc12` [Compound 4u, 1-[3-[[2-[5-chloro-1-(4-fluorophenyl)-3-1H-indolyl]ethyl]methylamino]propyl]-2-imidazolidinone hydrochloride]: the concentration for half-maximal inhibition (IC50) at 5-HT2 receptors (setting [1]) came out at 0.001 µM; on dopamine D2 receptors (setting [3]), 0.019 µM.
With `CN(CCc1cn(-c2ccc(F)cc2)c2ccc(Cl)cc12)CCN1CCNC1=O` [Compound 4v, 1-[2-[[2-[5-chloro-1-(4-fluorophenyl)-3-1H-indolyl]ethyl]methylamino]ethyl]-2-imidazolidinone maleate], the half-maximal inhibitory concentration (IC50) at 5-HT2 receptors (setting [1]) was 0.0053 µM; at dopamine D2 receptors (setting [2]), 0.025 µM.
Consider `C[C@@H](COc1cn(-c2ccc(F)cc2)c2ccc(Cl)cc12)N(C)C` [Compound 6a, (S)-N, N-Dimethyl-2-[5-chloro-1-(4-fluorophenyl) -3-1H-indolyloxy]-1-methylethylamine Oxalate], for which the IC50 at 5-HT2 receptors (setting [1]) was determined as 0.0074 µM; on dopamine D2 receptors (setting [3]) it was 0.0055 µM.
As to `C[C@H](COc1cn(-c2ccc(F)cc2)c2ccc(Cl)cc12)N(C)C` [Compound 6b, (R)-N,N-Dimethyl-2-[5-chloro-1-(4-fluorophenyl)-3-1H-indolyloxy]-1-methylethylamine oxalate], the concentration for half-maximal inhibition (IC50) is 0.021 µM on 5-HT2 receptors (setting [1]) and 0.037 µM on dopamine D2 receptors (setting [3]).
The matching figures for `CN(C)C(C)(C)COc1cn(-c2ccc(F)cc2)c2ccc(Cl)cc12` [Compound 6c, N,N-Dimethyl-1,1-dimethyl-2-[5-chloro-1-(4-fluorophenyl)-3-1H-indolyloxy]ethylamine oxalate]: 0.042 µM and 0.33 µM.
Turning to `CN1CCC[C@H]1COc1cn(-c2ccc(F)cc2)c2ccc(Cl)cc12` [Compound 7a, (S)-1-Methyl-2-pyrrolidinylmethoxy-5-chloro-1-(4-fluorophenyl)-1H-indole Oxalate], the results for the IC50 on 5-HT2 receptors (setting [1]) and at dopamine D2 receptors (setting [2]) were 0.018 µM and 0.03 µM, respectively.
As for `O=C1NCCN1CCN1CCC[C@@H]1COc1cn(-c2ccc(F)cc2)c2ccc(Cl)cc12` [Compound 8a, (R)-1-[2-[2-[5-Chloro-1-(4-fluorophenyl)-3-1H-indolyloxymethyl]-1-pyrrolidinyl]ethyl]-2-imidazolidinone Oxalate], the half-inhibitory concentration (IC50) stood at 0.049 µM on 5-HT2 receptors (setting [1]) and 0.0081 µM at dopamine D2 receptors (setting [3]).
Take `C[C@@H](CN(C)CCOc1cn(-c2ccc(F)cc2)c2ccc(Cl)cc12)N1CCNC1=O` [Compound 8b, (S)-1-[1-methyl-2-[[2-[5-chloro-1-(4-fluorophenyl)-3-1H-indolyloxy]ethyl]methylamino]ethyl]-2-imidazolidinone oxalate]: the IC50 at 5-HT2 receptors (setting [1]) amounted to 0.22 µM; at dopamine D2 receptors (setting [3]) it was 0.035 µM.
On to `CN(C)CCOc1c(CO)n(-c2ccc(F)cc2)c2ccc(Cl)cc12` [Compound 9a, N,N-Dimethyl-2-[5-chloro-1-(4-fluorophenyl)-2-hydroxymethyl-3-1H-indolyloxy]ethylamine Hydrochloride], for which the IC50 is 0.038 µM on 5-HT2 receptors and 0.43 µM on dopamine D2 receptors (setting [3]).
As for `Cc1c(OCCN(C)C)c2cc(Cl)ccc2n1-c1ccc(F)cc1` [Compound 10, N,N-Dimethyl-2-[5-chloro-1-(4-fluorophenyl)-2-methyl-3-1H-indolyloxy]ethylamine Oxalate], the IC50 at 5-HT2 receptors (setting [1]) is 0.011 µM; on dopamine D2 receptors (setting [3]), 0.083 µM.
As for `CN(C)Cc1cn(-c2ccc(F)cc2)c2ccc(Cl)cc12` [Compound 13a, N,N-Dimethyl-[5-chloro-1-(4-fluorophenyl)-3-1H-indolyl]methylamine Maleate], the IC50 on 5-HT2 receptors (setting [1]) was determined as 0.012 µM; on dopamine D2 receptors (setting [2]) it was 0.019 µM.

A word on the IC50: it is the concentration at which inhibition is half-maximal.
